Measurements reported in US8618068B2, “Methods and low dose regimens for treating red blood cell disorders” (priority 2009, dated 2013).

Key:
in vivo = format: in vivo
Excerpt: Completed toxicology studies conducted with DMB include a single-dose toxicity study in Sprague-Dawley rats, escalating dose toxicity study in Beagle dogs, a repeat dose study of 14-Day duration in Sprague-Dawley rats and repeat-dose toxicity studies of 28-Day duration in Sprague-Dawley rats and Beagle dogs, and 26-Week studies in Sprague-Dawley rats and Beagle dogs. […] Reproductive toxicity studies include two dose-range finding studies, one in Sprague-Dawley rats, the other in New Zealand white rabbits. DMB was administered once a day (QD) orally via gavage; doses are expressed as the sodium salt. In addition, an array of genotoxicity studies were conducted with DMB.
There were no abnormal macroscopic or microscopic observations associated with the elevated kidney or brain weights. These treatment-related findings were not considered adverse. The NOAEL for DMB administered to Sprague-Dawley rats for a minimum of 181 days was considered to be 500 mg/kg/day, whereas the NOEL for female Sprague-Dawley rats was 100 mg/kg/day.

γ-globin mRNA = γ-globin mRNA in μLCR-human Aγ-globin transgenic mice; format: in vivo; settings: after treatment with DMB
Excerpt: Transgenic mice containing the human β globin gene locus in a yeast artificial chromosome (βYAC) displaying the correct developmental regulation of ε-, γ-, and β-globin genes (with a silenced y-globin gene in the adult stage) were used to study the effects of DMB on γ-globin induction and erythroid cell production. In the μLCR-human A γ-globin transgenic mice, the y-globin mRNA expression relative to murine α-globin mRNA was increased by a mean of 1.8-fold above the baseline after treatment with DMB. In the βYAC transgenic mice at intraperitoneal (IP) doses of 500 mg/kg/day, DMB induced a 2-fold increase in human γ-globin mRNA synthesis relative to that of total non-α-globin. This level of induction was similar to that seen with 1,000 mg/kg/day of butyrate, and the changes were observed from 3 days after treatment initiation and persisted until 3 to 5 days after treatment termination.

[1] = test system: S. typhimurium tester strains TA98, TA100, TA1535, and TA1537; assay: Ames reverse bacterial mutagenicity test; settings: with and without S9 mix
Procedure: (§1) The standard battery of in vitro genetic toxicity tests were conducted with DMB. These tests were conducted with positive and vehicle controls, with and without metabolic activation, as appropriate, and in accordance with accepted guidelines.
(§2) For the Ames (reverse bacterial mutagenicity test), the tester strains used in the mutagenicity assay were S. typhimurium tester strains TA98, TA100, TA1535, and TA1537 and E. coli tester strain WP2uvrA. The assay was conducted in both the presence and absence of S9 mix along with concurrent vehicle and positive controls using three plates per dose.

[2] = test system: E. coli tester strain WP2uvrA; assay: Ames reverse bacterial mutagenicity test; settings: with and without S9 mix
Procedure: as §1, §2

CCC(C)(C)C(=O)[O-].[Na+] [DMB, Sodium 2,2-dimethylbutyrate]
NOAEL at 181 days (in vivo; both sexes, rat, in vivo, minimum of 181 days, oral): 500 mg/kg/day | mortalities or clinical observations (in vivo; daily oral, 26 weeks): no test article-associated mortalities or clinical observations | NOEL (in vivo; female, Sprague-Dawley, rat, in vivo, 181 days): 100 mg/kg/day | adverse effects (in vivo; rat, in vivo): no adverse effects | mean absolute and relative liver weights (in vivo; rat, in vivo, 500 mg/kg/day): associated increases | γ-globin mRNA expression relative to murine α-globin mRNA, mean increase above baseline (γ-globin mRNA): 1.8 fold | cytotoxicity (background lawn growth) [1]: no cytotoxicity was observed | mutation counts ([1]; up to 5000 per plate): No increase in mutation counts | cytotoxicity (background lawn growth) [2]: no cytotoxicity was observed | mutation counts ([2]; up to 5000 per plate): No increase in mutation counts
